Laboratory results: ChEMBL document CHEMBL1201862, “PubChem BioAssay data set” (2004)
“And” between values parts separate entries of the source, which are not always exact repeats. Identical values can stand only once.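 96-well plates; 48 h exposure; 5 concentrations. Endpoints by linear interpolation between flanking doses. Not reached: highest tested concentration assigned. Here, GI50 denotes the concentration required for 50% inhibition of growth.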 The source made the active and inactive calls. Cut-off read from the data, not from the text of the source: active = GI50 up to about 1.1 µM and inactive = higher.

Experiments:
Test in all cases: NCI anticancer screen, dose series, 48 h
SNB-78 = test system: SNB-78
DLD-1 = test system: DLD-1
DMS-114 = test system: DMS-114
KM-20L2 = test system: KM-20L2
LXFL 529 = test system: LXFL 529
HOP-18 = test system: HOP-18
M19-MEL = test system: M19-MEL
XF498 = test system: XF498
RXF 631 = test system: RXF 631

Structure (SMILES) | GI50 (SNB-78) | GI50 (DLD-1) | GI50 (DMS-114) | GI50 (KM-20L2) | GI50 (LXFL 529) | GI50 (HOP-18) | GI50 (M19-MEL) | GI50 (XF498) | GI50 (RXF 631)
COC12C(COC(=O)NCCO)C3=C(C(=O)C(C)=C(N)C3=O)N1CC1NC12 (configuration not stated) | 80.5 µM (inactive) | 41.4 µM (inactive) | 22.9 µM (inactive) | 37.9 µM (inactive) | 56.2 µM (inactive) | 36.8 µM (inactive) | 19.8 µM (inactive) | – | –
O=C(CN1C(=O)c2ccccc2C1=O)OC1C=CCCC1 (configuration not stated) | > 100 µM (inactive) | > 100 µM (inactive) | – | > 100 µM (inactive) | > 100 µM (inactive) | > 100 µM (inactive) | > 100 µM (inactive) | – | –
C=CCc1ccc(O)c(-c2cc(C3Oc4c(-c5cc(CC=C)ccc5O)cc(O)cc4[C@@H]3CO)ccc2O)c1 (some centres not stated) | 39.9 µM (inactive) | 18 µM (inactive) | 14.9 µM (inactive) | 26.7 µM (inactive) | 19.8 µM (inactive) | 32.4 µM (inactive) | 33.4 µM (inactive) | – | –
Cc1ccc(S(=O)(=O)SC/C=C\CSS(=O)(=O)c2ccc(C)cc2)cc1 | 25.9 µM (inactive) and 27.2 µM (inactive) | 22.1 µM (inactive) and 29.1 µM (inactive) | – | 23.2 µM (inactive) and 23.3 µM (inactive) | – | – | 35.3 µM (inactive) and 44.6 µM (inactive) | 38.5 µM (inactive) and 23.4 µM (inactive) | –
COC(=O)C(=O)C(C(=O)C(=O)Nc1ccccc1[N+](=O)[O-])c1nc2ccc([N+](=O)[O-])cc2nc1O (configuration not stated) | > 100 µM (inactive) | – | > 100 µM (inactive) | > 100 µM (inactive) | > 100 µM (inactive) | > 100 µM (inactive) | > 100 µM (inactive) | – | > 100 µM (inactive)
C[N+](C)(C)C1CC([N+](C)(C)C)C2c3ccccc3C21 (configuration not stated) | > 100 µM (inactive) | > 100 µM (inactive) | > 100 µM (inactive) | > 100 µM (inactive) | > 100 µM (inactive) | – | > 100 µM (inactive) | > 100 µM (inactive) | > 100 µM (inactive)
CC1=CC(=O)c2ccc3c4ccccc4n(C)c3c2C1=O | 90.8 µM (inactive) | 62.8 µM (inactive) | 27.7 µM (inactive) | – | 25.8 µM (inactive) | 4.4 µM (inactive) | 10.1 µM (inactive) | 29.2 µM (inactive) | –
O=C(CC1(O)C(=O)Nc2c(Cl)ccc(Cl)c21)c1ccc(F)cc1 (configuration not stated) | 35.6 µM (inactive) | 52.5 µM (inactive) | 22.7 µM (inactive) | 39.8 µM (inactive) | 19.4 µM (inactive) | 29.6 µM (inactive) | – | 32.7 µM (inactive) | 37 µM (inactive)
OC12CCC3(OC4CCCCO4)c4ccccc4C3C1c1ccccc12 (configuration not stated) | > 100 µM (inactive) | – | 87.5 µM (inactive) | 59.3 µM (inactive) | 41.2 µM (inactive) | > 100 µM (inactive) | 90.4 µM (inactive) | 31.8 µM (inactive) | –
COc1ccc(NC(=O)CC/C(CC(=O)c2ccccc2Cl)=N\Nc2nnc(C)n2N)cc1 | > 100 µM (inactive) | > 100 µM (inactive) | > 100 µM (inactive) | > 100 µM (inactive) | > 100 µM (inactive) | > 100 µM (inactive) | > 100 µM (inactive) | – | > 100 µM (inactive)
CN(/N=C\c1ccnc2ccccc12)c1ccccc1 | 34.4 µM (inactive) | 21.5 µM (inactive) | 22.7 µM (inactive) | – | 26.1 µM (inactive) | 79.1 µM (inactive) | 26.1 µM (inactive) | 29.7 µM (inactive) | –
CCCCCCCCCCCCCCCC(=O)NCC(COP(=O)([O-])OCC[N+](C)(C)C)OCC (configuration not stated) | 14.1 µM (inactive) | 5.19 µM (inactive) | 16 µM (inactive) | 4.01 µM (inactive) | 13.1 µM (inactive) | 0.92 µM (active) | 4.5 µM (inactive) | 12.1 µM (inactive) | –
O=c1c2ccccc2nc(-c2ccccc2Cl)n1NC1OC(CO)C(O)C(O)C1O (configuration not stated) | > 100 µM (inactive) | > 100 µM (inactive) | > 100 µM (inactive) | > 100 µM (inactive) | > 100 µM (inactive) | 32 µM (inactive) | > 100 µM (inactive) | > 100 µM (inactive) | –
COc1ccc(C(=O)C(CC2C(=O)NC(=O)NC2=O)c2ccc(OC)cc2)cc1 (configuration not stated) | > 100 µM (inactive) | > 100 µM (inactive) | > 100 µM (inactive) | > 100 µM (inactive) | > 100 µM (inactive) | > 100 µM (inactive) | > 100 µM (inactive) | > 100 µM (inactive) | –
c1ccc(SC(Sc2ccccc2)=C2CCC2)cc1 | > 100 µM (inactive) | > 100 µM (inactive) | > 100 µM (inactive) | > 100 µM (inactive) | – | – | > 100 µM (inactive) | 49.8 µM (inactive) | > 100 µM (inactive)
C/C(=N/O)c1ccc2c(c1)/C(=N/O)c1cc(/C(C)=N/O)ccc1-2 | 17.5 µM (inactive) | 16.1 µM (inactive) | 22.4 µM (inactive) | 17.4 µM (inactive) | 14.3 µM (inactive) | 14.1 µM (inactive) | 19.4 µM (inactive) | 21.8 µM (inactive) | –
CN(C)/N=N/c1cccc(C(N)=O)c1 | > 100 µM (inactive) | > 100 µM (inactive) | > 100 µM (inactive) | > 100 µM (inactive) | > 100 µM (inactive) | > 100 µM (inactive) | > 100 µM (inactive) | > 100 µM (inactive) | –
O=C(O)CSc1nnc(-c2ccccc2O)[nH]1 | > 100 µM (inactive) | > 100 µM (inactive) | > 100 µM (inactive) | > 100 µM (inactive) | > 100 µM (inactive) | – | > 100 µM (inactive) | > 100 µM (inactive) | > 100 µM (inactive)
O=[N+]([O-])c1cc(/C=N/NS(=O)(=O)c2ccc(F)cc2)c(O)c([N+](=O)[O-])c1 | 52.6 µM (inactive) | 51.3 µM (inactive) | 32.2 µM (inactive) | 25.9 µM (inactive) | – | 85.3 µM (inactive) | 49.8 µM (inactive) | – | –
C=CCC1C(=O)CC2(C)CC(=O)C(CC=C)C12C (configuration not stated) | > 100 µM (inactive) | > 100 µM (inactive) | > 100 µM (inactive) | > 100 µM (inactive) | > 100 µM (inactive) | > 100 µM (inactive) | > 100 µM (inactive) | > 100 µM (inactive) | –
CCC12C=CCN(CCc3c([nH]c4ccccc34)/C=C\1)C2 (configuration not stated) | – | > 10 µM (inactive) | > 100 µM (inactive) | > 100 µM (inactive) | > 100 µM (inactive) | > 100 µM (inactive) | > 100 µM (inactive) | > 100 µM (inactive) | > 100 µM (inactive)
CC1=NN(C(=O)Nc2ccccc2)C(=O)C2CCC(=O)N12 (configuration not stated) | > 100 µM (inactive) | > 100 µM (inactive) | > 100 µM (inactive) | > 100 µM (inactive) | > 100 µM (inactive) | – | > 100 µM (inactive) | > 100 µM (inactive) | > 100 µM (inactive)
COc1ccc(NC(=O)CC(=O)N/N=C(\C)c2cc3ccccc3oc2=O)cc1 | – | > 100 µM (inactive) | > 100 µM (inactive) | > 100 µM (inactive) | – | 80.5 µM (inactive) | > 100 µM (inactive) | – | –
CCCCCCCCCCCCCCCCCCOCC(COCCOCC[N+]1(CCCCCC(=O)[O-])CCCC1)Oc1ncccn1 (configuration not stated) | 2.56 µM (inactive) | 2.18 µM (inactive) | 1.21 µM (inactive) | 1.4 µM (inactive) | – | 4.85 µM (inactive) | 0.7 µM (active) | 2.1 µM (inactive) | –
Cc1nc2sccn2c1C(=O)NN | – | > 100 µM (inactive) | > 100 µM (inactive) | > 100 µM (inactive) | > 100 µM (inactive) | 21.6 µM (inactive) | > 100 µM (inactive) | > 100 µM (inactive) | > 100 µM (inactive)
